Results reported in US20210393793A1, “AXL-SPECIFIC ANTIBODIES FOR TREATMENT OF NON-SMALL CELL LUNG CANCER” (priority 2018, published 2021).
“Also recorded” adds a separate entry of the source.

What was measured:
cynomolgus monkeys = experiment: Toxicokinetic and toxicology data in cynomolgus monkeys; type: in vivo
[1] = Phase I dose escalation: PK parameters; type: in vivo, human; conditions: across doses/schedules
Source text: (§1) Secondary Endpoints • Safety laboratory parameters (hematology and biochemistry). • PK parameters (clearance, volume of distribution and area-under-the-concentration-time curve [AUC0-Clast and AUC0-∞], maximum concentration [Cmax], time of Cmax [Tmax], pre dose values, and half-life of HuMax-AXL-ADC and free toxin monomethyl auristatin E [MMAE]). • Immunogenicity of HuMax-AXL-ADC (anti-drug antibodies). • Anti-tumor activity measured by tumor shrinkage (based on computerized tomography [CT]-scan evaluations), as well as change in CA 125 in patients with ovarian cancer and change in prostate specific antigen (PSA) in patients with castration-resistant prostate cancer (CRPC). • Objective Response, Progression-Free Survival (PFS), Duration of Response (DoR) and Overall survival (OS). • Axl expression in the tumor biopsy.

[2] = tested on: EGFR mutated NSCLC patients; experiment: Expansion cohort 1: response (RECIST v1.1); type: in vivo, human
Source text: (§2) Patients had to meet all of the following inclusion criteria before they will be allowed to participate in the trial: • 1. For the dose escalation part: Patients with relapsed or refractory cancer of the ovary, cervix, endometrium, thyroid, non-small cell lung cancer (NSCLC), or melanoma (cutaneous, mucosal, acral or uveal melanoma) who have failed available standard therapy or who are not candidates for standard therapy, and for whom, in the opinion of the investigator, experimental therapy with HuMax-AXL-ADC may be beneficial. • For the expansion part: Patients with relapsed or refractory, advanced and/or metastatic cancer who were not candidates for standard therapy, and for whom, in the opinion of the investigator, experimental therapy with HuMax-AXL-ADC could be beneficial. […] Cohorts 1 and 2 included non-small cell lung cancer patients who had failed anticancer therapy as follows: • Expansion Cohort 1 (NSCLC patients with classical sensitizing EGFR mutations and/or other EGFR resistance mutations targeted by third generation TKIs (e.g. T790M for osimertinib)): • NSCLC patients after failure of up to 4 prior treatment regimens containing systemic therapy for metastatic disease • adjuvant and maintenance treatment is considered being part of one treatment regimen. • Documented progressive disease on or after last prior treatment • Last prior treatment to enrolment to GCT1021-01 should have been: • an EGFR inhibitor (e.g. Erlotinib, Osimertinib, etc.), • or a PD-1/PD-L1 inhibitor, • or a platinum-based doublet chemotherapy. • Expansion Cohort 2 (NSCLC patients without sensitizing EGFR mutations or ALK rearrangements) • NSCLC patients after failure of up to 4 prior treatment regimens containing systemic therapy for metastatic disease. • adjuvant and maintenance treatment is considered being part of one treatment regimen. • Documented progressive disease on or after last prior treatment. • Last prior treatment to enrolment to GCT1021-01 should have been • a PD-1/PD-L1 inhibitor. • or a chemotherapy (containing platinum, and/or taxane, and/or pemetrexed, and/or gemcitabine). • For the following conditions in Expansion Cohorts 1-2, the sponsor medical officer's approval of enrolment was needed: • if documented progression had not been on measurable disease (i.e. symptomatic progression). • if last prior treatment to enrolment was a combination therapy which contained an EGFR inhibitor or a PD-1/PD-L1 inhibitor. • if last prior treatment to enrolment contain chemotherapies other than platinum, and/or taxane, and/or pemetrexed, and/or gemcitabine (only applicable for NSCLC patients without sensitizing EGFR mutations or ALK rearrangements). • 2. […] In the dose escalation part all patients were required provide a tumor tissue sample (Formalin Fixed Paraffin Embedded blocks/slides) from archival tissue or fresh biopsy collected before Cycle 1, Visit 1, preferably derived from advanced disease stage. In the expansion part all patients were required to provide a fresh biopsy (aspirates were not acceptable) taken after failure/stop of last prior treatment. Furthermore the latest available tumor tissue sample had to be collected if available. • 4. Age 18 years. • 5. […]

[3] = tested on: non-small cell lung andenocarcinoma patients; experiment: Subject examples: treatment emerging events; type: in vivo, human; conditions: listed as enapotamab vendotin
Source text: (§3) Primary Endpoints • Dose Limiting Toxicities (DLTs) • Adverse events (AEs): incidences of AEs, serious adverse events (SAEs), infusion-related AEs, grade 3 AEs, and AEs related to IMP during the trial.

[4] = tested on: NSCLC patients without sensitizing EGFR mutations or ALK rearrangements; experiment: Expansion cohort 2: response (RECIST v1.1); type: in vivo, human
Source text: as §2, with “5. Have an acceptable renal function defined as: • Glomerular filtration rate (GFR)≥40 mL/min/1.73 m^2—e.g., according to the abbreviated Modification of Diet in Renal Disease (MDRD) equation: GFR=186×(SCr^−1.154)×(age^−0.203)(where SCr, the serum creatinine level, is expressed in mg/dL; multiply it by 0.742 if the patient was female; multiply it by 1.212, if the patient was African-American^3). • Not being on dialysis. • 6. Have an acceptable liver function defined as: • Alanine aminotransferase (ALT) and aspartate aminotransferase (AST)≤3 times the ULN; if liver tumor/metastases were present, then ≤5×ULN was allowed. • Bilirubin≤1.5×ULN, except in patients diagnosed with Gilbert's syndrome, direct bilirubin≤2×ULN. • 7.” for “5.”

[5] = tested on: non-small cell lung andenocarcinoma; experiment: Subject examples: tumor assessments by scan (RECIST 1.1); type: in vivo, human
Description: (§4) Response in solid tumor cancers was assessed in accordance with the RECIST criteria version 1.1^18 and for patients with ovarian cancer according to RECIST 1.1 in combination with CA 125 as defined by the Gynecological Cancer Intergroup^2.
Tumor shrinkage (based on CT-scan evaluations) was listed and summarized, per source (radiologist, central read).

[6] = tested on: patients with solid tumors; experiment: Dose escalation: anti-tumor response (RECIST v1.1); type: in vivo, human; conditions: for patients with a partial response: 1Q3W arm
Source text: as §1, §4
In the dose escalation, response evaluation was performed by the investigator and sponsor. In the expansion, response evaluation was performed by the investigator and sponsor as well as a group of external medical experts. Each patient was assigned one of the following categories:
Patients in response categories 1 and 2 were considered responders and patients in response categories 4 and 5 were considered as failing to respond to treatment (disease progression). Patients in response categories 1, 2 and 3 were considered to be in disease control.

[7] = tested on: patients with solid tumors; experiment: Phase I dose escalation: DLTs, MTD, RP2D, adverse events; type: in vivo, human
Source text: The present study was an open label, multi-center Phase I/IIa safety trial of HuMax AXL ADC in a mixed population of patients with solid tumors known from the literature to overexpress Axl and where the use of systemic tubulin inhibitors is part of Standard of Care (SoC). The trial consisted of two parts; a dose escalation part (phase I, first-in-human (FIH)) and an expansion part (phase IIa).
The dose escalation part consists of two, staggered, arms for identification of the most optimal dosing regimen: • 1Q3W: Dosing once every 3 weeks • 3Q4W: Weekly dosing for 3 weeks followed by one treatment-free week.
The 1Q3W dose escalation evaluated HuMax-AXL-ADC at seven main dose levels: 0.3, 0.6, 1.0, 1.5, 2.0, 2.4 and 2.8 mg/kg, and 4 optional intermediate dose levels 1.25, 1.8, 2.2 and 2.6 mg/kg. Further escalation with steps of 0.4 mg/kg and de-escalation by 0.2 mg/kg was allowed, if the MTD had not been declared at a dose level up to 2.8 mg/kg.
In the 1Q3W dose escalation the patients received 1 infusion of HuMax-AXL-ADC every three weeks as according to FIG. 2.
The 3Q4W dose escalation was conducted as a standard 3 (+3) design which evaluatedHuMax-AXL-ADC at doses of (0.45), 0.6, 0.8, 1.0, 1.2 and 1.4 mg/kg. The escalation was allowed to continue to higher dose levels with increments up to 20%, if the 1.4 mg/kg was reached without significant safety concerns and it was considered safe to escalate above 1.4 mg/kg, the. The starting dose was expected to be 0.6 mg/kg (a dose level of 0.45 mg/kg could be added) and as an additional precaution, the independent Data Monitoring Committee (DMC) could recommend intermediate dose levels at any step during dose escalation.
In the 3Q4W dose escalation the patients received weekly dosing for 3 weeks followed by one treatment-free week according to FIG. 3. Patients were treated until disease progression or unacceptable toxicity was observed.
as §3

[8] = 34 patients treated in expansion
[9] = 36 patients treated with 2.2 mg/kg (escalation+expansion)
[10] = of 34 patients treated in expansion
[11] = of 36 patients treated with 2.2 mg/kg (escalation+expansion)

In the case of Enapotamab vedotin [HuMax-AXL-ADC], the “recovery of neutrophils, thrombocytes and red blood cell parameters” value (cynomolgus monkeys; cynomolgus monkey, in vivo) is reported as “adequate recovery”, the safety profile (cynomolgus monkeys; cynomolgus monkeys) is reported as “acceptable safety profile” and the median elimination half-life [1] is reported as 22 to 52.8 h. The “Disease Control Rate (DCR)” value ([2]; 18 patients treated) was 39%, the “Objective Response Rate (unconfirmed)” value ([2]; 18 patients treated) was 5.5% and the “patients with Best Overall Response (BoR) of unconfirmed PR” value ([2]; of 18 patients treated) was 1. The “patients with BoR of PD” value ([2]; of 18 patients treated) was 6, the “patients with BoR of SD” value ([2]; of 18 patients treated) was 6 and the “Treatment emerging events (grade, relatedness)” value ([3]; Subject 401) was “urinary tract infection (G2, unrelated); also recorded: creatinine kinase increase (fluctuating between G1 and G2, possibly related); also recorded: muscle cramps (G1, possibly related); also recorded: worsening of cough (G2, unrelated); also recorded: ALT increase and AST increase (both G1 and unrelated); also recorded: dysphonia and left leg weakness, both events reported as G1 and possibly related”. For the same substance, the “Treatment emerging events (grade, relatedness)” value ([3]; Subject 403) was “two episodes of nausea (both Gland possibly related); also recorded: skin and subcutaneous tissue disorder (G1, not related); also recorded: constipation (G2, related); also recorded: two episodes of anorexia (G1, first episode unrelated, second episode possibly related); also recorded: gastroesophageal reflux (G1, not related); also recorded: alopecia (G1, related); also recorded: AST increase (G1, possibly related)”, the DCR [4, 8] was 47% and the “Objective Response Rate (ORR) (confirmed)” value [4, 8] was 11%. For the same substance, the DCR [4, 9] was 50%, the “ORR (confirmed)” value [4, 9] was 13.8% and the “patients with BoR of PD” value [4, 10] was 7. For the same substance, the “patients with BoR of SD” value [4, 10] was 12, the “patients with BoR of confirmed PR” value [4, 10] was 4 and the “patients with BoR of PD” value [4, 11] was 7. The “patients with BoR of SD” value [4, 11] was 13, the “patients with BoR of confirmed PR” value [4, 11] was 5 and the “decrease in sum of diameters compared to screening” value (shortened to “decrease in sum of diameters”) ([5]; Subject 401, C2D15) was 15%. The “sum of diameters of target lesions” value ([5]; Subject 401, C2D15, screening 26 mm) was 22 mm, the “decrease in sum of diameters” value ([5]; Subject 401, C4D15) was 34.6% and the “sum of diameters of target lesions” value ([5]; Subject 401, C4D15, screening 26 mm) was 17 mm. The “decrease in sum of diameters” value ([5]; Subject 401, C6D15) was 57.6%, the “sum of diameters of target lesions” value ([5]; Subject 401, C6D15, screening 26 mm) was 11 mm and the “decrease in sum of diameters” value ([5]; Subject 403, C2D15) was 19.3%. The “sum of diameters of target lesions” value ([5]; Subject 403, C2D15, screening 88 mm) was 71 mm, the “decrease in sum of diameters” value ([5]; Subject 403, C4D15) was 35.2% and the “decrease in sum of diameters” value ([5]; Subject 403, C6D15) was 36.4%. For the same substance, the “sum of diameters of target lesions” value ([5]; Subject 403, second post-baseline scan (C4D15), screening 88 mm) was 57 mm, the “sum of diameters of target lesions” value ([5]; Subject 403, third post-baseline scan (C6D15), screening 88 mm) was 56 mm and the “decrease in sum of diameters” value ([5]; Subject 406, C2D15) was 46.8%. The “sum of diameters of target lesions” value ([5]; Subject 406, C2D15, screening 32 mm) was 17 mm, the “patients with a partial response” value ([6]; NSCLC, 2.2 mg/kg dose) was 1 and the “patients with a partial response” value ([6]; all tumor types) was “Three”. The “patients with a partial response” value ([6]; ovarian, 1.5 and 2.4 mg/kg dose levels) was 2, the antitumor activity ([6]; single agent, pre-treated patients with solid tumors) was “encouraging preliminary antitumor activity” and the “Maximum Tolerated Dose (MTD)” value ([7]; 1Q3W arm) was 2.2 mg/kg. The “Recommended Phase 2 Dose (RP2D)” value ([7]; 1Q3W dosing regime) was 2.2 mg/kg, the “Maximum Tolerated Dose (MTD)” value ([7]; 3Q4W arm) was 1.0 mg/kg and the “number of DLTs” value ([7]; 47 patients enrolled) was 6. The “Adverse Effects (any grade): constipation” value ([7]; % of 47 patients) was 57%, the “Adverse Effects (any grade): decreased appetite” value ([7]; % of 47 patients) was 43% and the “Adverse Effects (any grade): diarrhea” value ([7]; % of 47 patients) was 47%. The “Adverse Effects (any grade): fatigue” value ([7]; % of 47 patients) was 64%, the “Adverse Effects (any grade): nausea” value ([7]; % of 47 patients) was 57% and the “Adverse Effects (any grade): vomiting” value ([7]; % of 47 patients) was 45%.
